EC50 and IC50 data for 16 molecules are collected here from ChEMBL document CHEMBL3745612, “Synthesis and biological evaluation of thiophene and benzo[b]thiophene analogs of combretastatin A-4 and isocombretastatin A-4: A comparison between the linkage positions of the 3,4,5-trimethoxystyrene unit” (Bioorg Med Chem Lett, 2016).

Molecules are shown by their SMILES.

One assay deals with Tubulin. The experiment in a line: Inhibition of Tubulin polymerization in human HeLa cells assessed as decrease in dynamic tyrosinated microtubules after 2 hrs by microplate reader analysis. Format: cell-based.
The next assay deals with MES-SA. The experiment in a line: Antiproliferative activity against human MES-SA cells after 72 hrs by resazurin assay. The format is functional, cell-based. In general terms: The colour change of resazurin is a common sign of viable cells or microbes.
A short description of assay [1]: Antiproliferative activity against human IC8 cells after 72 hrs by MTT assay. The format is functional, cell-based. The following applies: IC8, 72 h. A general note: Tetrazolium assays rely on reduction of a dye to a coloured formazan, in cell work by metabolically active cells.
Assay [2] is described as follows: Inhibition of sheep brain tubulin polymerization incubated at 37 degC for 10 mins and 0 degC for 5 mins by turbidimetry. The arrangement: species or system Ovis aries.

On to `COc1cc(/C=C/c2cc3ccccc3s2)cc(OC)c1OC`, for which the EC50 – broadly, the midpoint of the concentration-response curve – on Tubulin was determined as 3180 nM.

In the case of `COc1cc(/C=C\c2ccsc2)cc(OC)c1OC`, the EC50 at Tubulin was over 10000 nM.

Take `COc1cc(C(=O)c2csc3ccccc23)cc(OC)c1OC`: the EC50 on Tubulin is over 10000 nM.

For `COc1cc(C(=O)c2cc3ccccc3s2)cc(OC)c1OC`, the EC50 at Tubulin was over 10000 nM.

`COc1cc2c(c(OC)c1OC)-c1ccc(OC)c(=O)cc1[C@@H](NC(C)=O)CC2` [COLCHICINE]: the IC50 (in the assay with MES-SA; in assay [1]) was 15 nM each time.

For `C=C(c1cc(OC)c(OC)c(OC)c1)c1cccs1`, the EC50 on Tubulin was over 10000 nM.

`COc1cc(/C=C\c2csc3ccccc23)cc(OC)c1OC`: the IC50 – broadly, the concentration at which inhibition is half-maximal – in the assay on MES-SA is 191 nM; in assay [1], 288 nM. Besides, on Tubulin, the EC50 is 2430 nM.

For the molecule `COc1cc(/C=C\c2cc3ccccc3s2)cc(OC)c1OC`, the values for the EC50 (in assay [2]; on Tubulin) were 80 nM and 2600 nM, respectively. Moreover, the IC50 was 13 nM in the assay with MES-SA and 17 nM in assay [1].

Take `C=C(c1ccsc1)c1cc(OC)c(OC)c(OC)c1`: the EC50 on Tubulin was over 10000 nM.

Consider `C=C(c1cc(OC)c(OC)c(OC)c1)c1cc2ccccc2o1`, for which the EC50 on Tubulin is over 10000 nM.

For `C=C(c1cc(OC)c(OC)c(OC)c1)c1cc2ccccc2s1`, the IC50 was 95 nM in the assay with MES-SA and 101 nM in assay [1]. Besides, the EC50 on Tubulin is 321 nM.

With `COc1cc(/C=C\c2cccs2)cc(OC)c1OC`, the EC50 on Tubulin is over 10000 nM.

Take `C=C(c1cc(OC)c(OC)c(OC)c1)c1csc2ccccc12`: the concentration giving a half-maximal response (EC50) on Tubulin amounted to 3900 nM.

On to `COc1ccc(/C=C\c2cc(OC)c(OC)c(OC)c2)s1`, for which the values for the IC50 (with MES-SA; in assay [1]) were 53 nM and 76 nM, respectively. Also, at Tubulin, the EC50 was 1560 nM.

`COc1ccc(/C=C\c2cc(OC)c(OC)c(OC)c2)cc1O` [COMBRETASTATIN A4]: the IC50 in the assay with MES-SA is 3 nM; in assay [1], 4 nM.

Regarding `COc1csc(/C=C\c2cc(OC)c(OC)c(OC)c2)c1`, the IC50 is 25 nM in the assay with MES-SA and 27 nM in assay [1]. For the same molecule, the EC50 on Tubulin worked out at 81 nM.
